Test [1] has as its system E. coli ATCC25922. Put plainly: Broth microdilution MIC/MBC (ISO 20776-1). The format is cell-based, Escherichia coli. As to conditions: for MBC: E. coli ATCC25922, >99.99% reduction of growth; for MIC: E. coli ATCC25922, MH II broth, 35 °C, 24 h. On the procedure: (§1) Bacterial strains and cell lines were obtained from the American Type Culture Collection (ATCC).[59] […] Antimicrobial activity was tested in Müeller Hinton (MH) II broth (Becton Dickinson). For anticancer activity assay, the following reagents from Merk were used: 3-(4,5-dimethylthiazol-2-yl)-2,5-diphenyltetrazolium bromide (MTT), sodium dodecyl sulfate (SDS) and HCl. The solubilized formazan product was spectrophotometrically quantified in a Power Wave XS (Bio Tek, Winooski, VT, USA) microplate reader. The HL-60 and PC-3 cells were grown in RPMI-1640 medium with stable glutamine (Biowest) supplemented with 10% (v/v) of heat-inactivated fetal bovine serum (FBS, Biowest) and 1% (v/v) of antibiotic–antimycotic solution (Biowest). The SKOV-3 cells were grown in McCoy's 5A medium with L-glutamine (Biowest) supplemented with 10% (v/v) heat-inactivated FBS, and 1% (v/v) antibiotic–antimycotic solution. The MCF-7 cells were grown in Eagle's MEM (Minimal Essential Medium) medium with stable glutamine (Biowest), supplemented with 10% (v/v) heat-inactivated FBS 1% (v/v) MEM non-essential amino acids (Biowest), 1% (v/v) antibiotic–antimycotic solution, and 1 mM sodium pyruvate (Merck). The MCF-10A cells were grown in Ham's F-12K (Kaighn's) Medium with stable glutamine (Gibco) supplemented with 5% (v/v) heat-inactivated FBS, 1% (v/v) MEM non-essential amino acids, 1% (v/v) antibiotic–antimycotic solution, 5 μg mL^−1 insulin, 0.04 μg mL^−1 hydrocortisone (Merck), and 15 ng mL^−1 human Epidermal Growth Factor (hEGF, PeproTech).
(§2) The in vitro antibacterial activity was determined according to ISO 20776-1.[88] Among the tested microorganisms were Gram-negative rods, E. coli ATCC25922 and P. aeruginosa ATCC27853, and Gram-positive cocci, S. aureus ATCC29213 and E. faecalis ATCC29212. The selected bacterial species represented the most common etiologic agents of human infections and are used for quality control of antimicrobial susceptibility testing.[89] The test procedure included the determination of MICs and MBCs of complexes and their free ligands. MIC and MBC determinations of ciprofloxacin, as the reference antibiotic, were also performed. All compounds were dissolved in DMSO to reach the maximum 512 mg L^−1 concentration. […] The assay consisted of preparing 2-fold dilutions of the substances in a liquid growth medium MH II and inoculating them with a standardized suspension of microorganisms at a McFarland density of 0.5 (≈10^8 CFU mL^−1). The culture plates were incubated at 35 °C for 24 h. The lowest concentration of the compound inhibiting visible bacterial growth was specified as MIC, and the concentration that reduced bacterial growth by >99.99% after counting live bacteria on the plates compared to the positive control was defined as MBC.
(In broth dilution the organism is exposed to a series of concentrations in liquid medium.)

The subject of test [2] is P. aeruginosa ATCC27853. Put plainly: Broth microdilution MIC/MBC (ISO 20776-1). The format is cell-based, Pseudomonas aeruginosa. As to conditions: for MBC: P. aeruginosa ATCC27853, >99.99% reduction of growth; for MIC: P. aeruginosa ATCC27853, MH II broth, 35 °C, 24 h. On the procedure:
as §1, §2

Test [3] has as its system S. aureus ATCC29213. The test can be described thus: Broth microdilution MIC/MBC (ISO 20776-1). The format is cell-based, Staphylococcus aureus. To be noted: for MBC: S. aureus ATCC29213, >99.99% reduction of growth; for MIC: S. aureus ATCC29213, MH II broth, 35 °C, 24 h. The procedure:
as §1, §2

The test system of test [4] is E. faecalis ATCC29212. Put plainly: Broth microdilution MIC/MBC (ISO 20776-1). To be noted: for MBC: E. faecalis ATCC29212, >99.99% reduction of growth; for MIC: E. faecalis ATCC29212, MH II broth, 35 °C, 24 h. The format is cell-based, Enterococcus faecalis. The procedure: as §1, §2
For test [5], the system named is HL-60 cells. The test can be described thus: MTT cytotoxicity assay. The format is cell-based, human. On the procedure:
(§3) The cytotoxicities for studied compounds were evaluated against leukemia cells (HL-60), as well as ovarian (SKOV-3), prostate (PC-3), and breast (MCF-7) cancer cell lines. The potential selectivity of these compounds towards cancer cells was assessed by determination of their cytotoxicities towards breast non-cancerous cells (MCF-10A). For comparison, cisplatin was added to the cytotoxicity assays.
as §1
(§4) The cells were cultured in 96-well plates and incubated with the tested compound for 24 h and 48 h. All experiments were performed in exponentially growing cultures. The 0.03 M solutions of the compounds in DMSO were appropriately diluted using culture media. The maximal final concentration of DMSO in each well was 0.1%. The cytotoxicity of the compounds was measured by determining cell viability with a colorimetric test based on 3-(4,5-dimethylthiazol-2-yl)-2,5-diphenyltetrazolium bromide (MTT). MTT stock solution was added to each well to a final concentration of 0.5 mg mL^−1 and incubated for 4 h at 37 °C; following formazan crystals were dissolved by the addition of sodium dodecyl sulfate (SDS) solution (10% SDS in 0.001 M HCl). MTT and SDS were added directly to the cell culture. The compound's IC50 values (concentration required to reduce the viability of cells by 50% compared with the control cells) were calculated from the data obtained with the MTT assay.
A general note: Tetrazolium dyes change colour on reduction, which living cells bring about.

The subject of test [6] is MCF-7 cells. The test can be described thus: MTT cytotoxicity assay. The format is cell-based, human. To be noted: for IC50: MTT, read-out: IC50 ± SD. On the procedure:
as §3, §1, §4

For test [7], the system named is PC-3 cells. Put plainly: MTT cytotoxicity assay. It is filed as cell-based, human. To be noted: MTT, read-out: IC50 ± SD. The procedure:
as §3, §1, §4

The subject of test [8] is SKOV-3 cells. The test can be described thus: MTT cytotoxicity assay. The format is cell-based, human. As to conditions: MTT, read-out: IC50 ± SD. On the procedure:
as §3, §1, §4

In test [9] the test system is MCF-10A cells. Put plainly: MTT cytotoxicity assay. As to conditions: read-out: IC50 ± SD. On the procedure: as §3, §1, §4
The mark [10] stands for this setting: HL-60, 24 h, MTT, read-out: IC50 ± SD.
[11] abbreviates: HL-60, 48 h, MTT, read-out: IC50 ± SD.
The mark [12] stands for this setting: MCF-10A (non-cancerous), 24 h, MTT, * precipitation of the complex.
The mark [13] stands for this setting: MCF-10A (non-cancerous), 48 h, MTT, * precipitation of the complex.

In brackets after ≈: the same amount, converted by molar mass. Like-named read-outs stand apart in the source and are kept apart here.

On to `[C-]#[O+].[C-]#[O+].[C-]#[O+].[Re][O]c1cccc2cccnc12.c1c[nH]cn1` [complex 1, [Re(CO)3(Q)Him]], for which the MBC (commonly the smallest concentration meeting the test's criterion for killing) in [1] was 256/256 mg L^−1; in [2] it was greater than 512 mg/L; in test [3] it was greater than 512 µg/mL; in [4], greater than 512 µg/mL. Moreover, the minimal inhibitory concentration (MIC) (in general, the lowest concentration found to suppress growth) in test [1] is 256/256 mg L^−1; in [2] it was 128 mg/L; in test [3], 256 µg/mL; in test [4], 64 µg/mL. The 50% inhibitory concentration (IC50) (commonly the concentration needed to halve the response being measured) in [5] (setting [10]) worked out at 4.3 ± 0.2 µM; in [5] (setting [11]) it was 4 ± 1 µM; in [6] (MCF-7, 24 h) it was 34 ± 4 µM; in [6] (MCF-7, 48 h), 30 ± 7 µM; in test [7] (PC-3, 24 h), 28 ± 6 µM; in test [7] (PC-3, 48 h), 27 ± 4 µM. Also, the 50% inhibitory concentration (IC50) was found to be 36 ± 5 µM in test [8] (SKOV-3, 24 h); 39 ± 3 µM in test [8] (SKOV-3, 48 h); 39 ± 1 µM in [9] (setting [12]); 24 ± 1 µM in test [9] (setting [13]).

`Oc1ccc(Cl)c2cccnc12` [ClHQ, 5-chloro-8-hydroxyquinoline, reference compound]: the MBC was greater than 512 µg/mL in test [1] (Escherichia coli, read-out: MBC); greater than 512 mg/L in test [2] (Pseudomonas aeruginosa, read-out: MBC); 32 µg/mL (≈ 178 µM) in test [3] (Staphylococcus aureus, read-out: MBC); less than 0.5 µg/mL in test [4] (Enterococcus faecalis, read-out: MBC). In addition, the MIC is 16 µg/mL (≈ 89.1 µM) in test [1] (Escherichia coli, read-out: MIC); 256 mg/L (≈ 1430 µM) in test [2] (Pseudomonas aeruginosa, read-out: MIC); 8 µg/mL (≈ 44.5 µM) in [3] (Staphylococcus aureus, read-out: MIC); less than 0.5 µg/mL in [4] (Enterococcus faecalis, read-out: MIC). Further, the 50% inhibitory concentration (IC50) in [5] (Homo sapiens, HL-60, 24 h, MTT, read-out: IC50 ± SD) was 1.7 ± 0.1 µM; in [5] (Homo sapiens, HL-60, 48 h, MTT, read-out: IC50 ± SD), 1.6 ± 0.4 µM; in [5] (Homo sapiens, HL-60, incubation time not stated in the text (24 and 48 h), read-out: IC50) it was less than 2 µM; in test [6] (Homo sapiens, MCF7, MCF-7, 24 h), 32 ± 8 µM; in [6] (Homo sapiens, MCF7, MCF-7, 48 h) it was 13 ± 5 µM; in [7] (Homo sapiens, PC-3, 24 h), 25 ± 3 µM. The IC50 in test [7] (Homo sapiens, PC-3, 48 h) is 39 ± 3 µM; in [8] (Homo sapiens, SK-OV-3, SKOV-3, 24 h) it was greater than 100 µM; in test [8] (Homo sapiens, SK-OV-3, SKOV-3, 48 h) it was 42 ± 7 µM; in [9] (Homo sapiens, MCF-10A, 24 h) it was greater than 100 µM; in test [9] (Homo sapiens, MCF-10A, 48 h), 70 ± 1 µM. For the same compound, the “selectivity: IC50 for normal cells times higher than for breast cancer cells” value in test [6] (MCF-10A versus MCF-7) was “at least 3 times”.

For the compound [Re(CO)3(ClQ)MeHim]·CH3CN [complex 10], the minimum bactericidal concentration (MBC) was 512/>512 mg L^−1 in test [1], 512/>512 mg L^−1 in test [2], greater than 512 µg/mL in test [3] and greater than 512 µg/mL in [4]. The minimum inhibitory concentration (MIC) in test [1] is 512/>512 mg L^−1; in [2] it was 512/>512 mg L^−1; in [3] it was 64 µg/mL; in test [4] it was 4 µg/mL. The IC50 in [5] (setting [10]) is 5 ± 1 µM; in test [5] (setting [11]), 7 ± 1 µM; in [6] (MCF-7, 24 h), 54 ± 4 µM; in test [6] (MCF-7, 48 h), 53 ± 4 µM; in test [7] (PC-3, 24 h) it was 23 ± 2 µM; in test [7] (PC-3, 48 h), 23 ± 2 µM. Further, the IC50 in test [8] (SKOV-3, 24 h) is 34 ± 5 µM; in [8] (SKOV-3, 48 h), 32 ± 7 µM; in test [9] (setting [12]) it was 15 ± 1 µM; in test [9] (setting [13]), 12 ± 1 µM.

For the compound `Cc1ccc2cccc([O][Re])c2n1.Cc1ncc[nH]1.[C-]#[O+].[C-]#[O+].[C-]#[O+]` [complex 6, [Re(CO)3(MeQ)MeHim]], the minimum bactericidal concentration (MBC) in test [1] is >512/>512 mg L^−1; in test [2], >512/>512 mg L^−1; in test [3], 512 µg/mL; in test [4] it was 256 µg/mL. Besides, the MIC in [1] was >512/>512 mg L^−1; in test [2], >512/>512 mg L^−1; in [3] it was 64 µg/mL; in [4], 64 µg/mL. Moreover, the IC50 in [5] (setting [10]) amounted to 14 ± 1 µM; in test [5] (setting [11]), 9 ± 1 µM; in test [6] (MCF-7, 24 h) it was 44 ± 1 µM; in test [6] (MCF-7, 48 h), 35 ± 6 µM; in test [7] (PC-3, 24 h) it was 54 ± 7 µM; in test [7] (PC-3, 48 h), 22 ± 5 µM. For the same compound, the IC50 in test [8] (SKOV-3, 24 h) was 32 ± 7 µM; in test [8] (SKOV-3, 48 h), 30 ± 9 µM; in test [9] (setting [12]), 66 ± 1 µM; in [9] (setting [13]) it was 35 ± 1 µM.

(Values after PMC11152041, “Tricarbonyl rhenium(I) complexes with 8-hydroxyquinolines: structural, chemical, antibacterial, and anticancer characteristics” (RSC Advances, 2024).)
